Reference: patent publication US7030246B2, “Tetrahydroquinoline derivatives as stat6-modulators, preparation and use thereof” (Astrazeneca AB, priority 2001, dated 2006)

The molecules below were run on STAT6 signaling pathway (assay: Inhibition of STAT6-driven reporter gene activity (IL-4 induced luciferase in transfected U937 cells)). Settings: U-937; U937 cells stably transfected with IL-4 responsive luciferase reporter; 10 ng/ml recombinant human IL-4, 4–5 h; compound added 5 min before IL-4; read-out: IC50 (concentration of compound giving 50 percent inhibition of the luciferase response to addition of IL-4).
Assay type: cell-based
Excerpt: The ability of the compounds described herein to inhibit STAT6 signaling pathway is manifested in their ability to inhibit STAT6 driven reporter gene activity.
The cytokine-responsive human cell line U937 were transfected with a reporter gene plasmid consisting of an interluekin 4 (IL-4) responsive promoter driving the heterologous firefly gene for luciferase. The reporter gene plasmid also contained a gene for neomycin resistance. The IL-4 responsive promoter were constructed by four oligomerized combined C/BEPβ and STAT6 binding sites with the nucleotide sequence […] in close contact with a TATA-box. Cells with a stable integration of the reporter gene plasmid were selected by cultivation in neomycin. Such transfected cells were used for IL-4 induction by adding 10 ng/ml recombinant human IL-4 to 0.5–1×10^6 cells per ml. IL-4 induction were carried out for 4–5 h. Thereafter the cells were lysed and luciferase activity determined by using standard techniques. Numbers measured are the mean fold induction (fold induction for U937 is defined as the luciferase response in an IL-4 treated U937 cell sample divided by the luciferase response in an untreated U937 cell sample). Typically, IL-4 stimulation gave 15–20 fold induction of the luciferase response. Compounds were added 5 min before IL-4 when tested in the reporter gene assay. Compound effect was expressed as the concentration of compound giving 50 percent inhibition (IC50) of the luciferase response to addition of IL-4.

IC50 [nM] | Compound
430 | CC(=O)N1c2ccccc2[C@H](Nc2ccc(C#N)cc2)C[C@@H]1C (relative stereo) [No 36 Table I, 4-{[(2S*,4R*)-1-acetyl-2-methyl-1,2,3,4-tetrahydro-4-quinolinyl]amino}benzonitrile]
180 | CC(=O)N1c2ccc(I)cc2[C@H](Nc2ccccc2)C[C@@H]1C (relative stereo) [No 74 Table I, (2S*,4R*)-1-Acetyl-1,2,3,4-tetrahydro-6-iodo-2-methyl-N-phenyl-4-quinolinamine]
800 | CC(=O)N1c2ccccc2[C@H](Nc2ccc(C)cc2)C[C@@H]1C (relative stereo) [No 27 Table I, (2S*,4R*)-1-Acetyl-2-methyl-N-(4-methylphenyl)-1,2,3,4-tetrahydro-4-quinolinamine]
